Measurements reported in US10159726B2, “Peptides, combination of peptides and scaffolds for use in immunotherapeutic treatment of various cancers” (Immatics Biotechnologies GmbH, priority 2015, dated 2018).

Tests used:
[1] = test system: HLA-A*24; assay: MHC binding assay, UV-ligand exchange with beta2m ELISA, HLA-A*24; design: species or system human; details: binding to HLA-A*24, UV-ligand exchange, β2m ELISA
Description: Candidate peptides for T cell based therapies according to the present invention were further tested for their MHC binding capacity (affinity). The individual peptide-MHC complexes were produced by UV-ligand exchange, where a UV-sensitive peptide is cleaved upon UV-irradiation, and exchanged with the peptide of interest as analyzed. Only peptide candidates that can effectively bind and stabilize the peptide-receptive MHC molecules prevent dissociation of the MHC complexes. To determine the yield of the exchange reaction, an ELISA was performed based on the detection of the light chain (β2m) of stabilized MHC complexes. The assay was performed as generally described in Rodenko et al. (Rodenko et al., 2006).
96 well MAXISorp plates (NUNC) were coated over night with 2 ug/ml streptavidin in PBS at room temperature, washed 4× and blocked for 1 h at 37° C. in 2% BSA containing blocking buffer. […] Peptide-MHC monomers of the UV-exchange reaction were diluted 100 fold in blocking buffer. Samples were incubated for 1 h at 37° C., washed four times, incubated with 2 ug/ml HRP conjugated anti-β2m for 1 h at 37° C., washed again and detected with TMB solution that is stopped with […]. Absorption was measured at 450 nm. Candidate peptides that show a high exchange yield (preferably higher than 50%, most preferred higher than 75%) are generally preferred for a generation and production of antibodies or fragments thereof, and/or T cell receptors or fragments thereof, as they show sufficient avidity to the MHC molecules and prevent dissociation of the MHC complexes.

[2] = test system: CD8+ T cells of healthy HLA-A*24+ donor; assay: In vitro T-cell priming (immunogenicity) with aAPCs loaded with HLA-A*24 peptide/MHC and anti-CD28, multimer readout; format: cell-based, human; details: for in vitro immunogenicity, Wells positive [%]: HLA-A*24 peptides, in vitro priming, multimer readout; for peptide-specific in vitro CD8+ T cell response, 2D multimer staining: healthy HLA-A*24+ donor, three cycles of stimulation, FIG. 5, frequencies only in the figure
Experimental: In order to obtain information regarding the immunogenicity of the TUMAPs of the present invention, the inventors performed investigations using an in vitro T-cell priming assay based on repeated stimulations of CD8+ T cells with artificial antigen presenting cells (aAPCs) loaded with peptide/MHC complexes and anti-CD28 antibody.
PBMCs and isolated CD8+ lymphocytes were incubated in T-cell medium (TCM) until use consisting of RPMI-Glutamax (Invitrogen, Karlsruhe, Germany) supplemented with 10% heat inactivated human AB serum (PAN-Biotech, Aidenbach, Germany), 100 U/ml Penicillin/100 μg/ml Streptomycin (Cambrex, Cologne, Germany), 1 mM sodium pyruvate (CC Pro, Oberdorla, Germany), 20 μg/ml Gentamycin (Cambrex). 2.5 ng/ml IL-7 (PromoCell, Heidelberg, Germany) and 10 U/ml IL-2 (Novartis Pharma, Nürnberg, Germany) were also added to the TCM at this step.
Generation of pMHC/anti-CD28 coated beads, T-cell stimulations and readout was performed in a highly defined in vitro system using four different pMHC molecules per stimulation condition and 8 different pMHC molecules per readout condition.
The purified co-stimulatory mouse IgG2a anti human CD28 Ab 9.3 (Jung et al., 1987) was chemically biotinylated using Sulfo-N-hydroxysuccinimidobiotin as recommended by the manufacturer (Perbio, Bonn, Germany). Beads used were 5.6 μm diameter streptavidin coated polystyrene particles (Bangs Laboratories, Illinois, USA).
800.000 beads/200 μl were coated in 96-well plates in the presence of 4×12.5 ng different biotin-pMHC, washed and 600 ng biotin anti-CD28 were added subsequently in a volume of 200 μl. Stimulations were initiated in 96-well plates by co-incubating […] CD8+ T cells with 2×10^5 washed coated beads in 200 μl TCM supplemented with 5 ng/ml IL-12 (PromoCell) for 3 days at 37° C. Half of the medium was then exchanged by fresh TCM supplemented with 80 U/ml IL-2 and incubating was continued for 4 days at 37° C. This stimulation cycle was performed for a total of three times. For the pMHC multimer readout using 8 different pMHC molecules per condition, a two-dimensional combinatorial coding approach was used as previously described (Andersen et al., 2012) with minor modifications encompassing coupling to 5 different fluorochromes. Finally, multimeric analyses were performed by staining the cells with Live/dead near IR dye (Invitrogen, Karlsruhe, Germany), CD8-FITC antibody clone SK1 (BD, Heidelberg, Germany) and fluorescent pMHC multimers. For analysis, a BD LSRII SORP cytometer equipped with appropriate lasers and filters was used. Peptide specific cells were calculated as percentage of total CD8+ cells. Evaluation of multimeric analysis was done using the FlowJo software (Tree Star, Oregon, USA). In vitro priming of specific multimer+ CD8+ lymphocytes was detected by comparing to negative control stimulations.
Exemplary flow cytometry results after TUMAP-specific multimer staining for 2 peptides of the invention are shown in FIG. 3 together with corresponding negative controls. Exemplary flow cytometry results after TUMAP-specific multimer staining for 7 peptides of the invention are shown in FIGS. 4 and 5 together with corresponding negative controls.

| Substance | Peptide exchange (MHC class I binding score, peptide exchange yield) [1] | in vitro immunogenicity, Wells positive [%] [2] | peptide-specific in vitro CD8+ T cell response, 2D multimer staining [2] |
| --- | --- | --- | --- |
| 96 (YYTQYSQTI; listed as Homo sapiens) [compound 96] | ++++ (>=75% = ++++) | + (<20% = +) | – |
| 98 (VFPRLHNVLF; listed as Homo sapiens) [compound 98] | – | + (<20% = +) | – |
| 103 (NYIPVKNGKQF; listed as Homo sapiens) [compound 103] | – | + (<20% = +) | – |
| 104 (SYLTWHQQI; listed as Homo sapiens) [compound 104] | ++++ (>=75% = ++++) | + (<20% = +) | – |
| 105 (IYNETITDLL; listed as Homo sapiens) [compound 105] | – | + (<20% = +) | – |
| 106 (IYNETVRDLL; listed as Homo sapiens) [compound 106] | – | + (<20% = +) | – |
| 111 (VYVQILQKL; listed as Homo sapiens) [compound 111] | – | + (<20% = +) | – |
| 115 (RYLNKSFVL; listed as Homo sapiens) [compound 115] | – | + (<20% = +) | – |
| 132 (RYPALFPVL; listed as Homo sapiens) [compound 132] | ++++ (>=75% = ++++) | + (<20% = +) | – |
| 137 (EYLHNCSYF; listed as Homo sapiens) [compound 137] | ++++ (>=75% = ++++) | + (<20% = +) | – |
| 142 (VYVDDIYVI; listed as Homo sapiens) [compound 142] | – | ++++ (>=70% = ++++) | – |
| 156 (YYMELTKLLL; listed as Homo sapiens) [compound 156] | ++++ (>=75% = ++++) | + (<20% = +) | – |
| 157 (DYIPASGFALF; listed as Homo sapiens) [compound 157] | – | + (<20% = +) | – |
| 158 (IYEETRGVLKVF; listed as Homo sapiens) [compound 158] | – | + (<20% = +) | – |
| 160 (RYGDGGSSF; listed as Homo sapiens) [compound 160] | – | + (<20% = +) | – |
| 161 (KYPDIVQQF; listed as Homo sapiens) [compound 161] | – | + (<20% = +) | – |
| 162 (KYTSYILAF; listed as Homo sapiens) [compound 162] | – | + (<20% = +) | – |
| 163 (RYLTISNLQF; listed as Homo sapiens) [compound 163] | ++++ (>=75% = ++++) | + (<20% = +) | – |
| 164 (HYVPATKVF; listed as Homo sapiens) [compound 164] | – | + (<20% = +) | – |
| 167 (RYGFYYVEF; listed as Homo sapiens) [compound 167] | – | ++++ (>=70% = ++++) | – |
| 174 (VYEKNGYIYF; listed as Homo sapiens) [compound 174] | – | ++++ (>=70% = ++++) | – |

| Substance | Peptide exchange (MHC class I binding score, peptide exchange yield) [1] | in vitro immunogenicity, Wells positive [%] [2] | peptide-specific in vitro CD8+ T cell response, 2D multimer staining [2] |
| --- | --- | --- | --- |
| 175 (LYSPVPFTL; listed as Homo sapiens) [compound 175] | – | + (<20% = +) | – |
| 177 (VYFKAGLDVF; listed as Homo sapiens) [compound 177] | – | + (<20% = +) | – |
| 180 (KYLQVVGMF; listed as Homo sapiens) [compound 180] | – | + (<20% = +) | – |
| 181 (VYPPYLNYL; listed as Homo sapiens) [compound 181] | – | ++++ (>=70% = ++++) | – |
| 190 (LYSELTETL; listed as Homo sapiens) [compound 190] | – | ++++ (>=70% = ++++) | – |
| 301 (KFDDVTMLF; listed as Homo sapiens) [compound 301] | ++++ (>=75% = ++++) | – | – |
| 305 (NYENKQYLF; listed as Homo sapiens) [compound 305] | ++++ (>=75% = ++++) | – | – |
| 311 (EYLQNLNHI; listed as Homo sapiens) [compound 311] | ++++ (>=75% = ++++) | – | – |
| 313 (KYTHFIQSF; listed as Homo sapiens) [compound 313] | ++++ (>=75% = ++++) | – | – |
| 319 (KYSDVKNLI; listed as Homo sapiens) [compound 319] | ++++ (>=75% = ++++) | – | – |
| 344 (EYNSDLHQF; listed as Homo sapiens) [compound 344] | – | + (<20% = +) | – |
| 353 (TYGKIDLGF; listed as Homo sapiens) [compound 353] | – | + (<20% = +) | – |
| 354 (VYNEQIRDLL; listed as Homo sapiens) [compound 354] | – | + (<20% = +) | – |
| 357 (QFITSTNTF; listed as Homo sapiens) [compound 357] | ++++ (>=75% = ++++) | – | – |
| 358 (YYSEVPVKL; listed as Homo sapiens) [compound 358] | – | ++++ (>=70% = ++++) | – |
| 363 (SYAELGTTI; listed as Homo sapiens) [compound 363] | – | + (<20% = +) | – |
| 379 (VFIAQGYTL; listed as Homo sapiens) [compound 379] | ++++ (>=75% = ++++) | – | – |
| QYILAVPVL (listed as Homo sapiens) [SEQ ID NO: 99] | – | – | peptide-specific in vitro CD8+ T cell responses |
| VYEKNGYIYF (listed as Homo sapiens) [SEQ ID NO: 174] | – | – | peptide-specific in vitro CD8+ T cell responses |
| VYRVYVTTF (listed as Homo sapiens) [SEQ ID NO: 119] | – | – | peptide-specific in vitro CD8+ T cell responses |
| VYVDDIYVI (listed as Homo sapiens) [SEQ ID NO: 142] | – | – | peptide-specific in vitro CD8+ T cell responses |
